Results from PubChem BioAssay AID1963854 (Molecular Pharmacology Branch, DTP, NCI, 2024).
pIC50: −log10 of the molar value. Values joined by “and” are separate entries in the source; they are usually repeats but may differ in a detail not shown here. Identical values can stand only once.

Test system: 186277-243-T-J2-PDC complex spheroid viability
Assay: Anticancer human tumor 186277-243-T-J2-PDC patient-derived colon adenocarcinoma cell line growth inhibition [POLQ]
Details: for viability, T/C: stronger effect = lower value
Description: Multicellular complex tumor spheroid response to Polymerase (POL) inhibitors (novobiocin, ART-558, RP6685) in combination with a variety of drugs and investigational agents in selected tumor cell lines
The POL inhibitors (novobiocin, ART-558, and RP6685) were evaluated both individually and in combination with standard of care and investigational anticancer small molecules within a complex spheroid model of solid tumors. . Complex spheroids include a stromal component modeled by human endothelial cells (HUVEC) and fibroblasts modeled by human mesenchymal stem cells (MSCs). The concentration ranges selected for each drug and investigational agent were based upon clinically achievable concentrations if the clinical Cmax of the agent was known.
Compounds. The drugs and investigational agents: novobiocin (NSC847541), ART-558 (NSC835418), RP-6685 (NSC848927), peposertib (NSC802822), ceralasertib (NSC780249), elimusertib (NSC800525), camonsertib (NSC841442), AZD-1390 (NSC803789), olaparib (NSC753686), talazoparib (NSC767125), rucaparib (NSC756644), sotorasib (NSC818433), MRTX-1133 (NSC836407), SN-38 (NSC673596), topotecan (NSC609699), epotoside (NSC141540), doxorubicin (NSC123127), gemcitabine (NSC613327), 5-fluorouracil (NSC19893), paclitaxel (NSC125973), vemurafenib (NSC761431), MSA-2 (NSC828583), SN-011 (NSC837082), adavosertib (NSC754352), prexasertib (NSC758257), carboplatin (NSC241240) and oxaliplatin (NSC266046), were obtained from the National Cancer Institute (NCI) Developmental Therapeutics Program Chemical Repository (21). The FDA-approved anticancer drug set is available from the Developmental Therapeutics Program at https://dtp.cancer.gov/organization/dscb/obtaining/. […] The stock solutions were prepared in dimethyl sulfoxide (DMSO, Sigma-Aldrich, St. Louis, MO, cat. D2650), except for the platinum compounds which were prepared in saline (Quality Biological, Gaithersburg, MD, cat. 114-055-101), at 800-fold the tested concentration and stored at -70 degrees C prior to their use. All drugs and investigational agents were tested over a range starting from a high concentration at or near the clinical Cmax and decreasing in half-log increments. If the clinical Cmax for an agent had not been determined, the highest concentration tested was 10 microM, except for SN-38, which was tested at a high concentration of 1 microM.
Cell Culture. All cells were maintained in an incubator at 37 degrees C and 5% CO2 with 95% humidity. The PDC lines were cultured according to standard operating procedures established by the NCI PDMR (https://pdmr.cancer.gov). Table 3 of the manuscript, lists the cell lines along with the number of the three cell types plated to form the mct-spheroids and media for tumor cell growth. After thawing, all PDC lines, except 997537-175-T-J1-PDC and 415267-285-R-J2-PDC, were cultured in Matrigel-coated flasks prepared with a working solution of 1X Ham's F-12 nutrient mix, without supplementation (Thermo Fisher Scientific, cat. 11765054), 100 U/mL penicillin-streptomycin (Thermo Fisher Scientific, cat. 15140122), and 2.5% Matrigel (Corning Inc., Corning, NY, cat. 354248) for the first three passages. The two PDC lines 997537-175-T-J1-PDC and 415267-285-R-J2-PDC were cultured on uncoated flasks. The 857933-349-R-J2-PDC line was cultured in 6C/Colon 1B media containing advanced DMEM/F-12 (Thermo Fisher Scientific, cat. 12634028), 10 mM HEPES (Thermo Fisher Scientific, cat. 15630080), 1X GlutaMAX supplement (Thermo Fisher Scientific, cat. 35050061), 0.1 mg/mL primocin (InvivoGen, San Diego, CA, cat. ant-pm-2), 10% defined fetal bovine serum, heat inactivated (HyClone Laboratories Inc., Logan, UT, cat. SH30070.03HI), 50% L-WRN conditioned media (ATCC, cat. CRL-3276), 1.25 mM N-Acetyl-L-cysteine (Sigma-Aldrich, cat. A9165), 10 mM nicotinamide (Sigma-Aldrich, cat. N0636), 1X B-27 supplement (Thermo Fisher Scientific, cat. 17504044), 1X N-2 supplement (Thermo Fisher Scientific, cat. […]

[1] = curve of first compound, second compound 0.0316 µM
[2] = curve of first compound, second compound 0.1 µM
[3] = curve of first compound, second compound 0.316 µM
[4] = curve of first compound, second compound 1 µM
[5] = curve of first compound, second compound 3.16 µM
[6] = curve of first compound, second compound 10 µM
[7] = second compound 0.0316 µM, first compound 0.0316 µM
[8] = second compound 0.0316 µM, first compound 0.1 µM
[9] = second compound 0.0316 µM, first compound 0.316 µM
[10] = second compound 0.0316 µM, first compound 1 µM
[11] = second compound 0.0316 µM, first compound 3.16 µM
[12] = second compound 0.0316 µM, first compound 10 µM
[13] = second compound 0.1 µM, first compound 0.0316 µM
[14] = second compound 0.1 µM, first compound 0.1 µM
[15] = second compound 0.1 µM, first compound 0.316 µM
[16] = second compound 0.1 µM, first compound 1 µM
[17] = second compound 0.1 µM, first compound 3.16 µM
[18] = second compound 0.1 µM, first compound 10 µM
[19] = second compound 0.316 µM, first compound 0.0316 µM
[20] = second compound 0.316 µM, first compound 0.1 µM
[21] = second compound 0.316 µM, first compound 0.316 µM
[22] = second compound 0.316 µM, first compound 1 µM
[23] = second compound 0.316 µM, first compound 3.16 µM
[24] = second compound 0.316 µM, first compound 10 µM
[25] = second compound 1 µM, first compound 0.0316 µM
[26] = second compound 1 µM, first compound 0.1 µM
[27] = second compound 1 µM, first compound 0.316 µM
[28] = second compound 1 µM, first compound 1 µM
[29] = second compound 1 µM, first compound 3.16 µM
[30] = second compound 1 µM, first compound 10 µM
[31] = second compound 3.16 µM, first compound 0.0316 µM
[32] = second compound 3.16 µM, first compound 0.1 µM
[33] = second compound 3.16 µM, first compound 0.316 µM
[34] = second compound 3.16 µM, first compound 1 µM
[35] = second compound 3.16 µM, first compound 3.16 µM
[36] = second compound 3.16 µM, first compound 10 µM
[37] = second compound 10 µM, first compound 0.0316 µM
[38] = second compound 10 µM, first compound 0.1 µM
[39] = second compound 10 µM, first compound 0.316 µM
[40] = second compound 10 µM, first compound 1 µM
[41] = second compound 10 µM, first compound 3.16 µM
[42] = second compound 10 µM, first compound 10 µM
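Note: spheroids exposed to compounds for seven days.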
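Throughout, for viability, T/C: 100% = DMSO vehicle control viability.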

COc1ccc([C@@H](O)c2cc(-c3ncnc4cc(N5CCOCC5)ccc34)c(F)cc2Cl)nn1 + Cc1cccc(N(C)C(=O)C2C(O)CCN2c2nc(C)cc(C(F)(F)F)c2C#N)c1
pIC50 [1]: 5.23
pIC50 [2]: 5.25
pIC50 [3]: 5.17
pIC50 [4]: 5.19
pIC50 [5]: 5.24
pIC50 [6]: 5.21
viability, T/C [7]: 102%
viability, T/C [8]: 105%
viability, T/C [9]: 94.9%
viability, T/C [10]: 110%
viability, T/C [11]: 74.3%
viability, T/C [12]: 29.4%
viability, T/C [13]: 101%
viability, T/C [14]: 112%
viability, T/C [15]: 109%
viability, T/C [16]: 97.9%
viability, T/C [17]: 71.3%
viability, T/C [18]: 28.1%
viability, T/C [19]: 90.4%
viability, T/C [20]: 105%
viability, T/C [21]: 101%
viability, T/C [22]: 104%
viability, T/C [23]: 86.2%
viability, T/C [24]: 30.4%
viability, T/C [25]: 100%
viability, T/C [26]: 107%
viability, T/C [27]: 97%
viability, T/C [28]: 98.1%
viability, T/C [29]: 81%
viability, T/C [30]: 30%
viability, T/C [31]: 107%
viability, T/C [32]: 114%
viability, T/C [33]: 109%
viability, T/C [34]: 99.4%
viability, T/C [35]: 76.9%
viability, T/C [36]: 26.2%
viability, T/C [37]: 101%
viability, T/C [38]: 102%
viability, T/C [39]: 125%
viability, T/C [40]: 109%
viability, T/C [41]: 84.3%
viability, T/C [42]: 25.1%

COc1cccc2c1C(=O)c1c(O)c3c(c(O)c1C2=O)CC(O)(C(=O)CO)CC3OC1CC(N)C(O)C(C)O1 (stereo unspecified) + Cc1cccc(N(C)C(=O)C2C(O)CCN2c2nc(C)cc(C(F)(F)F)c2C#N)c1
pIC50 [1]: 6.97
pIC50 [2]: 6.94
pIC50 [3]: 6.94
pIC50 [4]: 6.92
pIC50 [5]: 6.92
pIC50 [6]: 7.12
viability, T/C [7]: 104%
viability, T/C [8]: 52.1%
viability, T/C [9]: 10.2%
viability, T/C [10]: 0.23%
viability, T/C [11]: 0.15%
viability, T/C [12]: 0.39%
viability, T/C [13]: 107%
viability, T/C [14]: 55.6%
viability, T/C [15]: 11.1%
viability, T/C [16]: 0.24%
viability, T/C [17]: 0.11%
viability, T/C [18]: 0.45%
viability, T/C [19]: 96.9%
viability, T/C [20]: 55.2%
viability, T/C [21]: 10.3%
viability, T/C [22]: 0.56%
viability, T/C [23]: 0.14%
viability, T/C [24]: 0.43%
viability, T/C [25]: 95.7%
viability, T/C [26]: 57%
viability, T/C [27]: 12%
viability, T/C [28]: 0.45%
viability, T/C [29]: 0.16%
viability, T/C [30]: 0.7%
viability, T/C [31]: 89.3%
viability, T/C [32]: 57.4%
viability, T/C [33]: 9.06%
viability, T/C [34]: 0.16%
viability, T/C [35]: 1.06%
viability, T/C [36]: 0.34%
viability, T/C [37]: 76.3%
viability, T/C [38]: 42.1%
viability, T/C [39]: 3.48%
viability, T/C [40]: 0.3%
viability, T/C [41]: 0.5%
viability, T/C [42]: 0.36%

CCc1cc2c(N3CCc4c(cc(Cn5ccnc5)cc4-c4cn(C)nc4C(F)(F)F)C3=O)ccnc2c(OC)n1
viability, T/C (compound 0.0316 µM): 103% and 94.2% and 101%
viability, T/C (compound 0.1 µM): 91.9% and 87.2% and 87.1%
viability, T/C (compound 0.316 µM): 88.2% and 90.2% and 95.8%
viability, T/C (compound 1 µM): 84.1% and 101% and 107%
viability, T/C (compound 3.16 µM): 87.8% and 103% and 101%
viability, T/C (compound 10 µM): 83.4% and 104% and 91.2%
pIC50 (curve of compound): < 5.00
